This note sets out measurements from ChEMBL document CHEMBL1201862, “PubChem BioAssay data set” (2004).

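Cultured in 96-well plates, cells were exposed to test compound for 48 hours across five concentrations. At the GI50, growth is halved.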 Calls of active or inactive are those of the source. No stated cut-off is given here; in the data, active = GI50 up to about 1.1 µM and inactive = higher. Some results are limits rather than exact numbers.

Test systems include NCI/ADR-RES; CCRF-CEM; NCI-H460; MDA-MB-231; DU-145; HOP-92; SK-MEL-5; SK-OV-3; OVCAR-5; SNB-75; HCC 2998; SF-268; U-251; SF-295; HCT-15; RPMI-8226; K562; UACC-257; PC-3; NCI-H23.
Test in all cases: NCI tumour cell line growth inhibition, 48 h

As for `COc1cc(/C=C2\N=C(c3ccccc3)N(c3nc4c(Cl)cc(Cl)cc4s3)C2=O)ccc1O`, the GI50 is 31 µM (inactive) with NCI/ADR-RES; 13.6 µM (inactive) in the test with CCRF-CEM; 28.3 µM (inactive) with NCI-H460; 25.8 µM (inactive) in the test with MDA-MB-231; 34.8 µM (inactive) in the test on DU-145; 21.3 µM (inactive) in the test on HOP-92. Also, the GI50 in the test with SK-MEL-5 is 24.5 µM (inactive); in the test on SK-OV-3, 55.7 µM (inactive); in the test with OVCAR-5, 71 µM (inactive); with SNB-75, 39.3 µM (inactive); in the test with HCC 2998, 19.8 µM (inactive); in the test on SF-268 it was 30.1 µM (inactive). The GI50 in the test with U-251 is 22.9 µM (inactive); in the test with SF-295, 34.4 µM (inactive); in the test with HCT-15, 31.3 µM; in the test with RPMI-8226, 8.53 µM (inactive); in the test with K562 it was 24.8 µM (inactive); with UACC-257 it was 30.9 µM (inactive). Further, the GI50 with PC-3 is 19.5 µM (inactive).
Regarding `CC(C)CCNC(=O)c1ccc(CNC(=O)/C=C/c2csc(-c3ccccc3)n2)cc1`, the GI50 is > 100 µM (inactive) with NCI-H23; 36.9 µM (inactive) in the test on NCI/ADR-RES; > 100 µM (inactive) with CCRF-CEM; > 100 µM (inactive) in the test on NCI-H460; 33 µM (inactive) with MDA-MB-231; > 100 µM (inactive) in the test with DU-145. For the same compound, the GI50 with HOP-92 was 27.7 µM (inactive); in the test on SK-MEL-5 it was 29.5 µM (inactive); in the test with SK-OV-3, 40 µM (inactive); in the test on OVCAR-5 it was > 100 µM (inactive); in the test with SNB-75, 14.4 µM (inactive); with HCC 2998, > 100 µM (inactive). The GI50 in the test with SF-268 is 35.4 µM (inactive); with U-251, 29.4 µM (inactive); in the test on SF-295, 33.9 µM (inactive); in the test with HCT-15, 95.5 µM; in the test with RPMI-8226 it was > 100 µM (inactive); in the test with K562 it was > 100 µM (inactive). The GI50 was 96.8 µM (inactive) in the test on UACC-257 and > 100 µM (inactive) in the test with PC-3.
Regarding `CC(C)N1C=[N+](C(C)C)CC1`, the GI50 in the test with NCI-H23, in the test with NCI/ADR-RES, with CCRF-CEM, with NCI-H460, in the test on MDA-MB-231 and in the test on DU-145 was > 100 µM (inactive) in each case. Besides, the GI50 in the test with HOP-92, in the test on SK-MEL-5, in the test with SK-OV-3, in the test with OVCAR-5, in the test on SNB-75 and with HCC 2998 was > 100 µM (inactive) in each case. Further, the GI50 is > 100 µM (inactive) in the test with SF-268; > 100 µM (inactive) with U-251; > 100 µM (inactive) in the test on SF-295; over 100 µM with HCT-15; > 100 µM (inactive) in the test on RPMI-8226; > 100 µM (inactive) in the test on K562. For the same compound, the GI50 in the test on UACC-257 and in the test on PC-3 was > 100 µM (inactive) throughout.
As for `N#C/C(=C\n1ccc(=O)[nH]c1=S)C(N)=O`, the GI50 with NCI-H23, with NCI/ADR-RES, in the test with CCRF-CEM, with NCI-H460, with MDA-MB-231 and in the test on DU-145 was > 100 µM (inactive) throughout. Also, the GI50 with HOP-92 is 73.6 µM (inactive); with SK-MEL-5, > 100 µM (inactive); in the test on SK-OV-3 it was > 100 µM (inactive); in the test on OVCAR-5, > 100 µM (inactive); in the test on SNB-75, > 100 µM (inactive); in the test with HCC 2998, > 100 µM (inactive). Moreover, the GI50 is > 100 µM (inactive) in the test on SF-268; > 100 µM (inactive) in the test on U-251; > 100 µM (inactive) with SF-295; over 100 µM with HCT-15; > 100 µM (inactive) in the test with RPMI-8226; > 100 µM (inactive) with K562. Moreover, the GI50 in the test on UACC-257 and in the test with PC-3 was > 100 µM (inactive) in each case.
For `O=C1C=C2CO[C@H]3OC[C@H](O)[C@@H]1[C@@H]23`, the GI50 is > 100 µM (inactive) in the test with NCI-H23; > 100 µM (inactive) with NCI/ADR-RES; 19 µM (inactive) in the test with CCRF-CEM; > 100 µM (inactive) in the test with NCI-H460; 73.3 µM (inactive) with MDA-MB-231; > 100 µM (inactive) in the test on DU-145. Moreover, the GI50 with HOP-92 is 46.3 µM (inactive); in the test with SK-MEL-5, > 100 µM (inactive); in the test with SK-OV-3, > 100 µM (inactive); in the test on OVCAR-5, 73.5 µM (inactive); in the test on SNB-75, 43 µM (inactive); with HCC 2998 it was 29 µM (inactive). For the same compound, the GI50 is 36.2 µM (inactive) in the test with SF-268; 19.7 µM (inactive) in the test on U-251; > 100 µM (inactive) in the test with SF-295; 44 µM in the test with HCT-15; 20.4 µM (inactive) in the test with RPMI-8226; 26.9 µM (inactive) in the test with K562. In addition, the figures for the GI50 in the test with UACC-257 and with PC-3 were 29.8 µM (inactive) and > 100 µM (inactive), respectively.
As to `C=C=C(CC(CC(=C)Br)(C(=O)OC)C(=O)OC)S(=O)(=O)c1ccccc1`, the GI50 with NCI-H23 is 2.05 µM (inactive); in the test with NCI/ADR-RES it was 2.26 µM (inactive); in the test on CCRF-CEM, 0.497 µM (active); with NCI-H460, 5.86 µM (inactive); with MDA-MB-231, 1.98 µM (inactive); in the test with DU-145, 1.6 µM (inactive). Besides, the GI50 is 1.95 µM (inactive) in the test on HOP-92; 3.11 µM (inactive) in the test on SK-MEL-5; 16.6 µM (inactive) with SK-OV-3; 1.65 µM (inactive) with OVCAR-5; 6.22 µM (inactive) in the test with SNB-75; 2.58 µM (inactive) with HCC 2998. Besides, the GI50 in the test with SF-268 was 2.37 µM (inactive); in the test with U-251, 1.5 µM (inactive); in the test on SF-295, 13.4 µM (inactive); in the test with HCT-15, 1.51 µM; in the test on RPMI-8226 it was 1.85 µM (inactive); in the test with K562 it was 1.48 µM (inactive). The figures for the GI50 in the test with UACC-257 and in the test on PC-3 were 2.03 µM (inactive) and 1.73 µM (inactive), respectively.
Take `O=[N+]([O-])C[C@@]12O[C@]3(O)C4C5CC(C6C5C3C61)C42` (some centres undefined): the GI50 in the test with NCI-H23, with NCI/ADR-RES, in the test on CCRF-CEM, with NCI-H460, in the test on MDA-MB-231 and in the test on DU-145 was > 100 µM (inactive) each time. For the same compound, the GI50 is > 100 µM (inactive) in the test with HOP-92; > 100 µM (inactive) with SK-MEL-5; > 100 µM (inactive) with SK-OV-3; > 100 µM (inactive) in the test with OVCAR-5; > 100 µM (inactive) in the test with SNB-75; < 0.01 µM (active) with HCC 2998. The GI50 in the test on SF-268 was > 100 µM (inactive); in the test with U-251, > 100 µM (inactive); in the test with SF-295 it was > 100 µM (inactive); in the test on HCT-15, over 100 µM; in the test with RPMI-8226 it was > 100 µM (inactive); with K562, > 100 µM (inactive). Further, the GI50 in the test on UACC-257 and in the test with PC-3 was > 100 µM (inactive) in each case.
